From ChEMBL document CHEMBL4706658, “Discovery and Biological Evaluation of N-Methyl-pyrrolo[2,3-b]pyridine-5-carboxamide Derivatives as JAK1-Selective Inhibitors” (J Med Chem, 2021) come the findings set out here.

Series [1] addresses Vascular endothelial growth factor receptor 1 (Homo sapiens, UniProt P17948).
The next series in a line: cells. The series is classed as functional, LX2. Particulars: Homo sapiens, LX-2, 72 h; time hrs <=72.
Series [2] can be described thus: in vitro. Particulars: dog, MDCK.
Description: Permeability of compound across apical to basolateral side in MDCK cells at 10 uM
Series [3] in a line: in vitro. Conditions: human, microsomes.
Description: Metabolic stability in human liver microsomes assessed as parent compound remaining at 10 uM measured after 30 mins relative to control
The nature of series [4]: in vitro. Particulars: rat, microsomes.
Description: Metabolic stability in rat liver microsomes assessed as parent compound remaining at 10 uM measured after 30 mins relative to control
Series [5] is described as follows: in vitro. Particulars: mouse, microsomes.
Description: Metabolic stability in mouse liver microsomes assessed as parent compound remaining at 10 uM measured after 30 mins relative to control
The next series concerns the target CYP3A4 (Homo sapiens, UniProt P08684). Kind of series: in vitro.
The next series has as its target CYP2D6 (Homo sapiens, UniProt P10635). Kind of series: in vitro.
A further series deals with CYP2C9 (Homo sapiens, UniProt P11712). Nature of the series: in vitro.
Sequence of CYP2C9 (P11712 whole entry): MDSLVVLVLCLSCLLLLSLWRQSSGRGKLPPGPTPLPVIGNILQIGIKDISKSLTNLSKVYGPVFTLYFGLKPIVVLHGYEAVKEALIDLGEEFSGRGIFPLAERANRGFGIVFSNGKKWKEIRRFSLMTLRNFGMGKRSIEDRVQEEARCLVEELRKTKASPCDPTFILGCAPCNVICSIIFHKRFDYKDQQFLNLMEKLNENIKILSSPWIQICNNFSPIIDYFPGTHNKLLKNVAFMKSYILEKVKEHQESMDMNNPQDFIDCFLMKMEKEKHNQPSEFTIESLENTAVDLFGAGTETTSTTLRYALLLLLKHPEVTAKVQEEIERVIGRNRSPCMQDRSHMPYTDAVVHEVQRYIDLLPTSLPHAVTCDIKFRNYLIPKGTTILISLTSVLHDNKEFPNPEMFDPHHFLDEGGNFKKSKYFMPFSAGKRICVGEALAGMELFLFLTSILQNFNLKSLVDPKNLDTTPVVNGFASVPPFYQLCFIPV
The target in a further series is CYP2C19 (Homo sapiens, UniProt P33261). Nature of the series: in vitro.
In another series the target is T1, CYP1A2 (Homo sapiens, UniProt P05177).
T1 sequence (P05177 whole entry): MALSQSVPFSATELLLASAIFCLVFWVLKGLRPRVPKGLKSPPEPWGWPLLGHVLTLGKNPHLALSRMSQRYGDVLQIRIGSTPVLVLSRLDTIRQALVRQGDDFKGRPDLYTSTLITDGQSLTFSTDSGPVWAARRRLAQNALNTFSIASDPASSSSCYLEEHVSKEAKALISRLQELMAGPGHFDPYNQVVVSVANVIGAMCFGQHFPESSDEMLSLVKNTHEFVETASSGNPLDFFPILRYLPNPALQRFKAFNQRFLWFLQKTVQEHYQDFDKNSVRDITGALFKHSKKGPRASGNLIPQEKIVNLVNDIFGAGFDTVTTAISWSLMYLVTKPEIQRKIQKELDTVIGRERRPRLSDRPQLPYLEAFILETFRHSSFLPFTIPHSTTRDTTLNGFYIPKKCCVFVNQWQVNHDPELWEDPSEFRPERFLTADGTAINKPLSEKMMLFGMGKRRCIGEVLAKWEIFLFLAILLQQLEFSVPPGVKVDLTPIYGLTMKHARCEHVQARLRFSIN
Nature of the series: in vitro.

Series [6] in a line: in vitro. Particulars: human, plasma.
Description: Stability in human plasma assessed as compound remaining at 2 uM measured after 2 hrs relative to control
Series [7] in a line: in vitro. Particulars: rat, plasma.
Description: Stability in rat plasma assessed as compound remaining at 2 uM measured after 2 hrs relative to control
Series [8] in a line: in vitro. Particulars: dog, MDCK. This is another data set of the same source.
Description: Permeability of compound across basolateral to apical side in MDCK cells at 10 uM
The nature of series [9]: in vitro. Conditions: human, lx2.
The target of series [10] is T2, Tyrosine-protein kinase JAK1 (Homo sapiens, UniProt P23458). Particulars: BaF3.
T2 sequence (P23458 whole entry): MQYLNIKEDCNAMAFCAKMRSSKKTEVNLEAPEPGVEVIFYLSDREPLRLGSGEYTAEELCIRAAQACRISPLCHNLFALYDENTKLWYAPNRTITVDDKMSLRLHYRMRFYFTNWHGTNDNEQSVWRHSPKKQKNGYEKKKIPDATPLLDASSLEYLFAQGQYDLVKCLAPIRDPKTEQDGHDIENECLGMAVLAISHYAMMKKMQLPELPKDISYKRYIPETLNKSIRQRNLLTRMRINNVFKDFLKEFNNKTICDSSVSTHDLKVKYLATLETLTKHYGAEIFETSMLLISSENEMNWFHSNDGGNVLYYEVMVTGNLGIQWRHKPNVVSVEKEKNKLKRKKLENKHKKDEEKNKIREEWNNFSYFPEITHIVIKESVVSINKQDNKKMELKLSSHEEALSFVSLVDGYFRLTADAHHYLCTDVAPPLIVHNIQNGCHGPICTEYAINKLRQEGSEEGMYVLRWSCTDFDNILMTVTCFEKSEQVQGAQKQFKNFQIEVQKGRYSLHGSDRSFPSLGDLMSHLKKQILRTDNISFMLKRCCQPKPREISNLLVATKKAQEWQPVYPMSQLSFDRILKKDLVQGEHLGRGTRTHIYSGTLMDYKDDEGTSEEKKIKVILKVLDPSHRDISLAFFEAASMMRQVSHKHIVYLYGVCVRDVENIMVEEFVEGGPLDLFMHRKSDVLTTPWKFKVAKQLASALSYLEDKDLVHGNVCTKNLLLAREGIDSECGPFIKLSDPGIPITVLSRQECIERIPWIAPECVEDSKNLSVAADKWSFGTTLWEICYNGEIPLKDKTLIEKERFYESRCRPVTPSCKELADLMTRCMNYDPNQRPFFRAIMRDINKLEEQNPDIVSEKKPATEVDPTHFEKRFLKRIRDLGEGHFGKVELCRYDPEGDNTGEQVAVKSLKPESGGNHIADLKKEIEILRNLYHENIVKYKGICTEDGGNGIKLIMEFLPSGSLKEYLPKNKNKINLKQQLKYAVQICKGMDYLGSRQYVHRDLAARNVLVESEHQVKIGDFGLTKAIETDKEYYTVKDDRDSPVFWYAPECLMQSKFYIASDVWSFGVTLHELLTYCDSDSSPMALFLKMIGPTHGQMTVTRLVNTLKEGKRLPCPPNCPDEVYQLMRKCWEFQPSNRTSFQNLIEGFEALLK
Description: Inhibition of JAK1 (unknown origin) transfected in mouse BAF3 cells assessed as cell growth inhibition incubated for 72 hrs by CCK8 assay
Series [11] deals with T3, Tyrosine-protein kinase JAK2 (Homo sapiens, UniProt O60674). Conditions: BaF3.
T3 sequence (O60674 whole entry): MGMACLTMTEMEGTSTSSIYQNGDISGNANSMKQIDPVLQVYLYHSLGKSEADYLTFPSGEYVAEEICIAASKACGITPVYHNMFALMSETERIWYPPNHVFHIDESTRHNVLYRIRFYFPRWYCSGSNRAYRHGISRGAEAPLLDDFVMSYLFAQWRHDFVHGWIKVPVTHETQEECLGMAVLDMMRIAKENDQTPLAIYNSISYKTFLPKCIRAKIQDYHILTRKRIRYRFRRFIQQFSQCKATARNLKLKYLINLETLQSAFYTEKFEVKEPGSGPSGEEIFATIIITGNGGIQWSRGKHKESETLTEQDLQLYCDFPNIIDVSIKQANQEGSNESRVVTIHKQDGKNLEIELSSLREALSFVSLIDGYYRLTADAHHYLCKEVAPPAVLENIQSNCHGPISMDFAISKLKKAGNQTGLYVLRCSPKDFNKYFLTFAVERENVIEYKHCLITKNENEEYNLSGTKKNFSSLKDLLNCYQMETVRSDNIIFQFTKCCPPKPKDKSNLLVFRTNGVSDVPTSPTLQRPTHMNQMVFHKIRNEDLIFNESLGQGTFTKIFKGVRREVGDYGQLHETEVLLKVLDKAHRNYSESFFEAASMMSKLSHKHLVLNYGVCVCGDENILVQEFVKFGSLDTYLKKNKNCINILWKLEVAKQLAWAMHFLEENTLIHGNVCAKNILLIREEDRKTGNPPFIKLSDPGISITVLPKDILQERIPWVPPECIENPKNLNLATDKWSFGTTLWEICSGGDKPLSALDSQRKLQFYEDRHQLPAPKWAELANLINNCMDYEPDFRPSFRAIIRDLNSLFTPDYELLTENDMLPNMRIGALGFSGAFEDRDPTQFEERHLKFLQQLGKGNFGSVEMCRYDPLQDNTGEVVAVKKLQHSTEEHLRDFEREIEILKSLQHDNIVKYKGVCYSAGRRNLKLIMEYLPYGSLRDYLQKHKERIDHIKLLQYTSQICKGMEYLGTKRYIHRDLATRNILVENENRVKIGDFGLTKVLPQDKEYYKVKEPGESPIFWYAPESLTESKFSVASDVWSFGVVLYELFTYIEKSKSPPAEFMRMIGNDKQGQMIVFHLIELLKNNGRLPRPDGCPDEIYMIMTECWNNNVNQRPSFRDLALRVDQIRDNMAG
Description: Inhibition of JAK2 (unknown origin) transfected in mouse BAF3 cells assessed as cell growth inhibition incubated for 72 hrs by CCK8 assay
Series [12] addresses T4, Tyrosine-protein kinase JAK3 (Homo sapiens) (UniProt P52333).
T4 sequence (whole entry): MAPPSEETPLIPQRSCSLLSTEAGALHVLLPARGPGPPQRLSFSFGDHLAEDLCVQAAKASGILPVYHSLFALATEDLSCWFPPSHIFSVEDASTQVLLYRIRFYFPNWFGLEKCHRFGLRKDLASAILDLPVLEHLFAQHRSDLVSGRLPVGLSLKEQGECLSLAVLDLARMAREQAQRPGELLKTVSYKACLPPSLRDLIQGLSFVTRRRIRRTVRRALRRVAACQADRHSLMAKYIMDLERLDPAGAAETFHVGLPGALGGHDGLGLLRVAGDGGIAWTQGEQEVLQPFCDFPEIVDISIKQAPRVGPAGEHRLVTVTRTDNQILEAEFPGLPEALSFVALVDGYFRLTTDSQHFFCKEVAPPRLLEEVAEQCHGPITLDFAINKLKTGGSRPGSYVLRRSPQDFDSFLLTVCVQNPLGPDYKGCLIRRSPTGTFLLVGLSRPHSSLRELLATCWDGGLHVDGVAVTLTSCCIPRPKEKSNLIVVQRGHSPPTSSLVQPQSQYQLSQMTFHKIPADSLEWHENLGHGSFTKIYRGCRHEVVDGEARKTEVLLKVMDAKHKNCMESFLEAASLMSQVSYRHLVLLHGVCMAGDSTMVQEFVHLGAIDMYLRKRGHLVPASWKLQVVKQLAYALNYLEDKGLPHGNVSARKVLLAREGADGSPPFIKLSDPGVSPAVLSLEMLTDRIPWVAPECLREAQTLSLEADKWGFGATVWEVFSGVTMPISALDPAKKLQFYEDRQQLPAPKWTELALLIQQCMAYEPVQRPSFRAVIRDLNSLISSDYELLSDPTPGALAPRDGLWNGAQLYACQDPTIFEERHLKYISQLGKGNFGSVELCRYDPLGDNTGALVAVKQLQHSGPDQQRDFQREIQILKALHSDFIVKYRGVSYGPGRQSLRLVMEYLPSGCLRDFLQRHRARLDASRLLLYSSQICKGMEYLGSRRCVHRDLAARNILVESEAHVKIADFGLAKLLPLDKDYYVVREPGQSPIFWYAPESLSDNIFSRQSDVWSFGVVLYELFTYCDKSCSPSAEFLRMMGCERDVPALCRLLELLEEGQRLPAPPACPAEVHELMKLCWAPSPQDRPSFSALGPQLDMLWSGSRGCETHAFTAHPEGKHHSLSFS
Particulars: BaF3.
Description: Inhibition of JAK3 (unknown origin) transfected in mouse BAF3 cells assessed as cell growth inhibition incubated for 72 hrs by CCK8 assay

Series [13] addresses T5, Non-receptor tyrosine-protein kinase TYK2 (Homo sapiens, UniProt P29597). Particulars: BaF3.
Description: Inhibition of TYK2 (unknown origin) transfected in mouse BAF3 cells assessed as cell growth inhibition incubated for 72 hrs by CCK8 assay
In series [14] the target is T2, Tyrosine-protein kinase JAK1.
Description: Inhibition of recombinant JAK1 (unknown origin) using GFP-STAT1 as substrate incubated for 1 hr followed by anti-pSTAT1 antibody addition and measured after 30 mins by Lanthascreen TR-FRET assay
In series [15] the target is T5, Non-receptor tyrosine-protein kinase TYK2.
Description: Inhibition of recombinant TYK2 (unknown origin) using GFP-STAT1 as substrate incubated for 1 hr followed by anti-pSTAT1 antibody addition and measured after 30 mins by Lanthascreen TR-FRET assay
The target of series [16] is T3, Tyrosine-protein kinase JAK2.
Description: Inhibition of recombinant JAK2 (unknown origin) using GFP-STAT1 as substrate incubated for 1 hr followed by anti-pSTAT1 antibody addition and measured after 30 mins by Lanthascreen TR-FRET assay
Series [17] relates to LX2. Particulars: Homo sapiens, dose lower […], dose upper 500.0 nM.
Series [18] deals with LX2. Conditions: Homo sapiens, dose 500.0 nM.
The subject of series [19] is LX2. Conditions: Homo sapiens, dose 500.0 nM. This is another data set of the same source.
Series [20] relates to LX2. Particulars: Homo sapiens, dose 500.0 nM. This is another data set of the same source.

Molecules are shown by their SMILES. The source made the active and inactive calls. The rule behind the calls is not given here.

T5 sequence (P29597 whole entry): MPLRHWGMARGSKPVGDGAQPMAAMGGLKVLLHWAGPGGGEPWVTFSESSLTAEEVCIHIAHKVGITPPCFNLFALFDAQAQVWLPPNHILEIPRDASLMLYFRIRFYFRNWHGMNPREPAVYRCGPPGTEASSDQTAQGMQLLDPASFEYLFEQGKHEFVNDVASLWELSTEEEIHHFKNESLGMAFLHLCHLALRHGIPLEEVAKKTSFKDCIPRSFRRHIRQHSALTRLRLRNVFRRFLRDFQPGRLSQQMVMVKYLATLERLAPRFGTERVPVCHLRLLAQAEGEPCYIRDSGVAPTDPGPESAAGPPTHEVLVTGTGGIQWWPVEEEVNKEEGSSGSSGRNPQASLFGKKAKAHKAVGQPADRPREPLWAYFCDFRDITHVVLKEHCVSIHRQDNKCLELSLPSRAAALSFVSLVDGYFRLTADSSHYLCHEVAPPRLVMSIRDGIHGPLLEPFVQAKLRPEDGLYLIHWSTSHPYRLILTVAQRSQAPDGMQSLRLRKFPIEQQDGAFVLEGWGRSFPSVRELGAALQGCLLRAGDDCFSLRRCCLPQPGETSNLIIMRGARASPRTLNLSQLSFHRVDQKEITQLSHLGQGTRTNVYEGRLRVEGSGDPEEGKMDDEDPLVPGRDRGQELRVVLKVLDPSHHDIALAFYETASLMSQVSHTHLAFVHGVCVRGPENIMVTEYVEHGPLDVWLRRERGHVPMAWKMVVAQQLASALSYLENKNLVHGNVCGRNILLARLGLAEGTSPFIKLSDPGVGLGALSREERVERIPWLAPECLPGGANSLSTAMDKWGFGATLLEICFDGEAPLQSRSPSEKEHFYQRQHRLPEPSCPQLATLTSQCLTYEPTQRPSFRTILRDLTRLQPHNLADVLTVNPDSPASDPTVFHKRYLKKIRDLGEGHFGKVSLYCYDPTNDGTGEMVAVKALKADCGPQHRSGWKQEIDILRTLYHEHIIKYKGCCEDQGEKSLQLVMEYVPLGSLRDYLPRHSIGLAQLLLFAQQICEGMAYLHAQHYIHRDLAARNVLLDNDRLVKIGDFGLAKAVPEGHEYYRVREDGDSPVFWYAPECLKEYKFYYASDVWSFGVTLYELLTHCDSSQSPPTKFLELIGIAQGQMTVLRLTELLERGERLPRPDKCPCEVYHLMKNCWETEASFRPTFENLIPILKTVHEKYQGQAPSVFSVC
Sequence of CYP2D6 (P10635 whole entry): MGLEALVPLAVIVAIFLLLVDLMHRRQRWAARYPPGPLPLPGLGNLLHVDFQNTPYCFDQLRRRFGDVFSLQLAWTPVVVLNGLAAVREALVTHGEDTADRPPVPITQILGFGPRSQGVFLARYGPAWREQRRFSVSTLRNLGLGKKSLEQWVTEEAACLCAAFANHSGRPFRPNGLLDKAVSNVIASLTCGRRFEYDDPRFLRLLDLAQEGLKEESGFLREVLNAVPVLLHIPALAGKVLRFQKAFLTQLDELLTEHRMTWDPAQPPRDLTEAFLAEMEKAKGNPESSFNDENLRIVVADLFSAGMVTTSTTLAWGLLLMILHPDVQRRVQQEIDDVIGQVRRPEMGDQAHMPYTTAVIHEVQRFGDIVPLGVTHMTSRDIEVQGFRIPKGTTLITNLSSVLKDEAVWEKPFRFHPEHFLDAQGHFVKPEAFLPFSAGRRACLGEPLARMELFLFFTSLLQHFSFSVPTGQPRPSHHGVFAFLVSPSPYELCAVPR
Sequence of CYP3A4 (P08684 whole entry): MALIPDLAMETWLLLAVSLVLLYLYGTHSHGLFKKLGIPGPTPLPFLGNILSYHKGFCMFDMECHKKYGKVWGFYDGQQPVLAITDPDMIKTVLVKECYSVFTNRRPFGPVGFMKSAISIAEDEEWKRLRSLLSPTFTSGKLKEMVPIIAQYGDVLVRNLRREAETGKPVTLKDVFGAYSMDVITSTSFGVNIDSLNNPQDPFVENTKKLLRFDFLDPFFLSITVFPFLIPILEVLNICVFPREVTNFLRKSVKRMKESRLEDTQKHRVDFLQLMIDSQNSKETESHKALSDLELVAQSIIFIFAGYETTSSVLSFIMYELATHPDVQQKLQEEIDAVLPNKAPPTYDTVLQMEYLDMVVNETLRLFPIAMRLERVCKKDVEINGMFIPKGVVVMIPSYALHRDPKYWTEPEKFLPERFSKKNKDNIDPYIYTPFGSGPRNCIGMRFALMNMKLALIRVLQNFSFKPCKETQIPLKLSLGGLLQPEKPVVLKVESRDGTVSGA
Description for CYP1A2: Inhibition of CYP1A2 (unknown origin) at 10 uM relative to control
Description for CYP2C19: Inhibition of CYP2C19 (unknown origin) at 10 uM relative to control
Description for CYP2C9: Inhibition of CYP2C9 (unknown origin) at 10 uM relative to control
Description for CYP2D6: Inhibition of CYP2D6 (unknown origin) at 10 uM relative to control

In turn, `CNC(=O)c1cnc2[nH]ccc2c1N[C@@H]1CCN(Cc2ccc(Cl)cc2)[C@H](C)C1` (relative stereo) [listing 1 of 2 here] showed an IC50 in [1] of 106 nM. Further, growth in the series “cells” was halved (GI50) at 5790 nM. This molecule returned a Papp A→B at 10 µM in the series “in vitro [2]” of 1.9 ×10⁻⁶ cm/s. The share remaining at 0.5 h, 10 µM in “in vitro [3]” turned out to be 80.6%; in “in vitro [4]” it was 11.6%; in the series “in vitro [5]” it was 28.2%. In addition, the inhibition at 10 µM at CYP3A4 is 92.9%; against CYP2D6 it was 77.1%; at CYP2C9, 70%; on CYP2C19, 75.7%; against CYP1A2, 74.8%. The amount remaining at 2 h, 2 µM was greater than 100% in “in vitro [6]” and 92.6% in “in vitro [7]”. This molecule registered a Papp B→A at 10 µM in “in vitro [8]” of 3.7 ×10⁻⁶ cm/s. This molecule also yielded a GI50 at 48 h in “in vitro [9]” greater than 10000 nM.
Take `CNC(=O)c1cnc2[nH]ccc2c1NC1CC2CCC(C1)N2Cc1ccc(Cl)cc1` (centres undefined): the GI50 in series [10] came to 1800 nM; in [11], 3950 nM; in series [12], 3900 nM; in series [13], 1710 nM.
On to `CNC(=O)c1cnc2[nH]ccc2c1N[C@@H]1CCN(Cc2ccc(Cl)cc2)[C@H](C)C1`, for which the GI50 in series [10] was 2950 nM; in series [12], greater than 10000 nM; in series [13], greater than 10000 nM.
Turning to `COc1cccc(CN2CCC(Nc3c(C(=O)NC4CCCC4)cnc4[nH]ccc34)CC2)c1`, the IC50 is 3280 nM in series [14], greater than 10000 nM in series [15] and greater than 10000 nM in [16].
As to `NC(=O)c1cnc2[nH]ccc2c1NC1CCN(Cc2ccccc2)CC1`, half-maximal inhibition in series [15] (IC50) was put at 110 nM.
As to `CNC(=O)c1cnc2[nH]ccc2c1N[C@@H]1CCN(Cc2ccc(Cl)cc2)[C@H](C)C1` (relative stereo) [listing 2 of 2 here], the figures for the GI50 in series [10], in [12] and in series [13] were 10.5 nM, 1360 nM and 655 nM, respectively. Moreover, the inhibition entry with LX2 [17], in the series on LX2 [18], in the series with LX2 [19] and with LX2 [20] was “Active” each time.
As for `CNC(=O)c1cnc2[nH]ccc2c1NC1CCN(Cc2ccc(OC)c(OC)c2)CC1`, the IC50 was 8400 nM in series [14] and greater than 10000 nM in series [16].
As for `CNC(=O)c1cnc2[nH]ccc2c1NC1CCN(Cc2cccc(OC)c2)CC1`, the IC50 stood at 18 nM in series [14], 1210 nM in series [15] and 469 nM in series [16].
Regarding `CNC(=O)c1cnc2[nH]ccc2c1N[C@@H]1CCN(Cc2cccc(Cl)c2)[C@@H](C)C1` (relative stereo), the GI50 in series [10] is 232 nM; in series [12] it was greater than 10000 nM; in [13] it was 4750 nM.
On to `CNC(=O)c1cnc2[nH]ccc2c1NC1CCCN(Cc2cccc(Cl)c2)CC1` (centres undefined), for which the GI50 is 476 nM in series [10], 7690 nM in series [11], greater than 10000 nM in series [12] and greater than 10000 nM in series [13].
On to `CNC(=O)c1cnc2[nH]ccc2c1NC1CCCN(Cc2cccc(OC)c2)CC1` (centres undefined), for which the IC50 in series [14] came out at 8.61 nM; in series [15], 42.7 nM; in [16], 4.34 nM.
On to `CNC(=O)c1cnc2[nH]ccc2c1NC1CCN(Cc2ccccc2)CC1`, for which the IC50 was 65 nM in series [14] and 586 nM in series [15].
In series [14], `O=C(NC1CCCC1)c1cnc2[nH]ccc2c1NC1CCN(Cc2ccccc2)CC1` registered an IC50 greater than 10000 nM.
Consider `O=C(Nc1nc2cccc(-c3ccc(CN4CCS(=O)(=O)CC4)cc3)n2n1)C1CC1`, for which the GI50 was 798 nM in series [10], greater than 10000 nM in series [11], greater than 10000 nM in series [12] and 7190 nM in series [13]. Moreover, in the series on LX2 [20], the inhibition result is “Active”.
As for `CNC(=O)c1cnc2[nH]ccc2c1N[C@@H]1CCN(Cc2cccc(OC)c2)C[C@@H]1F` (relative stereo), the GI50 in [10] came out at 214 nM; in series [13], 9650 nM.
Turning to `CNC(=O)c1cnc2[nH]ccc2c1NC1CCN(Cc2ccccc2OC)CC1`, the figures for the IC50 in [14], in series [15] and in [16] were 406 nM, 4180 nM and 7060 nM, respectively.
On to `CNC(=O)c1cnc2[nH]ccc2c1NC1CCCN(Cc2ccccc2)CC1` (centres undefined), for which the IC50 in series [15] came out at 276 nM; in series [16], 89.3 nM.
Consider `O=C(NC1CC1)c1cnc2[nH]ccc2c1NC1CCN(Cc2ccccc2)CC1`, for which the values for the IC50 in series [14], in series [15] and in series [16] were 114 nM, 1350 nM and 232 nM, respectively.
Turning to `C[C@@H]1C[C@H](Nc2c(C(N)=O)cnc3[nH]ccc23)CCN1Cc1cccc(Cl)c1` (relative stereo), the IC50 turned out to be 6.87 nM in series [14], 48.4 nM in series [15] and 93.8 nM in series [16].
Regarding `CNC(=O)c1cnc2[nH]ccc2c1NC1CCN(c2ccccc2)CC1`, the IC50 in series [14] was found to be 160 nM.
`CNC(=O)c1cnc2[nH]ccc2c1NC1CCN(Cc2ccc(OC)cc2)CC1`: the IC50 in series [14] was found to be 202 nM; in [16] it was 3540 nM.
Consider `CC(=O)Nc1cc(Oc2ccc3c(c2)CCN3C(=O)Nc2ccc(CN3CCN(C)CC3)c(C(F)(F)F)c2)ncn1`, for which the GI50 in series [10] turned out to be 129 nM; in [11], 409 nM; in [12] it was 451 nM; in [13], 150 nM.
Turning to `COc1cccc(CN2CCC(Nc3c(C(N)=O)cnc4[nH]ccc34)CC2)c1`, in series [14], the IC50 was 195 nM.
As for `CNC(=O)c1cnc2[nH]ccc2c1N[C@H]1CCN(Cc2ccc(Cl)cc2)[C@@H](C)C1`, the values for the GI50 in series [10], in series [12] and in series [13] were 6.4 nM, 1140 nM and 475 nM, respectively.
On to `COc1cccc(CN2CC[C@@H](Nc3c(C(N)=O)cnc4[nH]ccc34)C[C@H]2C)c1` (relative stereo), for which the IC50 was 17.2 nM in series [14], 157 nM in series [15] and 57.6 nM in series [16].
The matching figures for `COc1cccc(CN2CCC(Nc3c(C(=O)NC4CC4)cnc4[nH]ccc34)CC2)c1`: 2960 nM, greater than 10000 nM and greater than 10000 nM.
`CNC(=O)c1cnc2[nH]ccc2c1NC1CCN(Cc2cccc(C#N)c2)CC1`: the values for the IC50 in series [14], in series [15] and in [16] were 82 nM, 710 nM and 759 nM, respectively.
